Measurements as given in patent publication US20110021471A1, “REDUCING Abeta42 LEVELS AND Abeta AGGREGATION” (priority 2007, published 2011).

Assays:
[1] = test system: H4Bri-C99 (CTF-3)
Method: FIG. 6. […] Parent GSMs and biotin tagged photoactivatable GSMs were evaluated for their effects on Aβ secreted from H4Bri-C99 (CTF-3). Cells were treated with compounds for 6 hours and Aβ measured by ELISA. […] Changes in Aβ (percent control)±s.e.m., n=3.
(§1) Photoaffinity labelling. All experiments used the following general protocol. Samples (recombinant or synthetic peptides, cell lysates and membrane preparations) were exposed in borosilicate test tubes to ultraviolet light (350 nm) in a Rayonet Photoreactor R100 (RPR-3500 lamps, Southern New England Ultra Violet Company) in a cold room (4° C.) for 30 minutes or as otherwise noted. Crosslinked samples were analyzed by ELISA for biotin incorporation, or analyzed directly by SDS-PAGE (Criterion-XT, Bio-Rad), or after precipitation with streptavidin ultralink plus beads (Pierce). After immunblotting, proteins were detected using chemiluminesence (ECL Plus, GEHealthcare) or near-infrared fluorescence (LiCor Odyssey). Full-length APP and APP CTFs (CTF83, CTF99) were detected with CT20, a rabbit polyclonal antibody against the C-terminus of APP. Biotin was detected with an affinity-purified rabbit polyclonal antibody (Bethyl). Cell-based screens for amyloid-β modulation. Human H4 neuroglioma cells (American Type Culture Collection, ATCC) expressing wild-type APP695 protein or CTF105 fused to secreted alkaline phosphatase which is efficiently processed to APP CTFs (CTF83, CTF99) and produce high levels of amyloid-β, were used for the cell-based screens as previously described. Cells were incubated for 5-6 hours in the presence of the various compounds in Opti-Mem culture medium containing 1% fetal bovine serum. Compounds were dissolved in dimethylsulphoxide (DMSO; 0.5% final concentration) and diluted 200-fold. Media was analyzed for various amyloid-β species (40, 42 and total) using ELISAs as described herein. The EC50 values for changes in amyloid-β species were calculated by fitting sigmoid dose-response curves using nonlinear regression in Prism (GraphPad) and are shown as values±s.e.m. Statistical analysis. Data are presented as either percentage control or mean±s.e.m. Results were analyzed using Prism (Graph Pad) with t-tests or one-way analysis of variance analyses (ANOVAs) with Dunnett's post-hoc correction for comparison of multiple samples to a control. Statistical significance is shown as P,0.05 (one asterisk), P,0.01 (two asterisks) or P,0.001 (three asterisks).

[2] = biological target: γ-secretase (Homo sapiens, UniProt P49768); assay: Cell-free in vitro γ-secretase assay; assay type: biochemical
Method: FIG. 5. Fenofibrate-Biotin (Fen-B) is an Aβ42 raising GSM that labels cell-derived APP-CTF. (A) The effects of fenofibrate and fenofibrate-biotin (Fen-B) on Aβ production were investigated in a cell-free in vitro γ-secretase assay performed as described in the methods. […] Percent control Aβ species±s.e.m., n=2. (B) Fen-B labels APP-CTFs from cells lysates. CHAPSO solubilized membrane fractions from H4 APP-CTF-105-AP cells were irradiated (350 nm) in the presence of Fen-B (50 μM) for 30 minutes. Biotinylated material was precipitated with streptavidin overnight (SAv). Beads were washed (3×) and then incubated with XT sample buffer, heated to 95° C., run on 12% Criterion XT gels, and transferred to nitrocellulose membranes. Blots were probed for biotin (Bethyl) and APP (CT20). Excess drug (Fen-B) and unlableled APP-CTF is detected in the flow-through from the beads (unbound lane). Biotin bound to streptavdin (SAv) is detected by the anti-biotin antibody. APP-CTF-83 is pulled down in lane 2 and is reactive with anti-biotin and anti-APP (CT20).
Congo red (CR) and chrysamine G (CG), two of the most well characterized amyloid-β dyes, act as GSMs in cell-free γ-secretase assays.

[3] = biological target: T1, γ-secretase (PSEN1, NCSTN, APH1, PEN2) (UniProt +P49768+Q96BI3+Q9NZ42); assay: Photoaffinity labelling of purified γ-secretase preparation; assay type: binding; conditions: Fen-B 300 μM
T1 construct: made in house; host or cells: CHO c-30 (γ-30) cells

[4] = biological target: T2, APP(C100)-Flag (Homo sapiens, UniProt P05067); assay: Photoaffinity labelling of APP(C100)-Flag and competition; assay type: binding
T2 construct: APP(C100)-Flag, comprising the 99 C-terminal residues of APP plus a methionine at the N-terminus; added methionine (N)
Method: (§2) FIG. 1. […] The top panel is for anti-biotin staining; the middle panel is for anti-FLAG staining; and the bottom panel is an overlay of anti-biotin (red and anti-Flag green, LiCor Odyssey imaging). (E) Same samples as in D, but analyzed using an ELISA. Following crosslinking, C100Flag and N100 Flag were captured using anti-FLAG plate, and biotin incorporation was measured using streptavidin-HRP. […] Fen-B (50 μM) was crosslinked to Aβ (10 μM). Biotin labeling was measured following capture with an anti-Aβ1-16 antibody and detection with streptavidin-HRP.
as §1
The ability of a purified, recombinant Flag-tagged γ-secretase substrate derived from APP (APP(C100)-Flag, comprising the 99 C-terminal residues of APP plus a methionine at the N-terminus) to be labeled by Fen-B and Flurbi-BpB was tested.

[5] = biological target: T3, Notch (C100)-Flag (Mus musculus, UniProt Q01705); assay: Photoaffinity labelling of Notch (C100)-Flag; assay type: binding
T3 construct: a recombinant substrate derived from mouse Notch (Notch (C100)-Flag)
Method: Photoaffinity labelling. All experiments used the following general protocol. Samples (recombinant or synthetic peptides, cell lysates and membrane preparations) were exposed in borosilicate test tubes to ultraviolet light (350 nm) in a Rayonet Photoreactor R100 (RPR-3500 lamps, Southern New England Ultra Violet Company) in a cold room (4° C.) for 30 minutes or as otherwise noted. Crosslinked samples were analyzed by ELISA for biotin incorporation, or analyzed directly by SDS-PAGE (Criterion-XT, Bio-Rad), or after precipitation with streptavidin ultralink plus beads (Pierce). After immunblotting, proteins were detected using chemiluminesence (ECL Plus, GEHealthcare) or near-infrared fluorescence (LiCor Odyssey). Full-length APP and APP CTFs (CTF83, CTF99) were detected with CT20, a rabbit polyclonal antibody against the C-terminus of APP. Biotin was detected with an affinity-purified rabbit polyclonal antibody (Bethyl). Cell-based screens for amyloid-β modulation. […] Media was analyzed for various amyloid-β species (40, 42 and total) using ELISAs as described herein. The EC50 values for changes in amyloid-β species were calculated by fitting sigmoid dose-response curves using nonlinear regression in Prism (GraphPad) and are shown as values±s.e.m. […]

[6] = biological target: amyloid-β peptides (Aβ1-40, Aβ1-36, Aβ1-28, Flag-Aβ25-36) (Homo sapiens, UniProt P05067); assay: Photoaffinity labelling of amyloid-β peptides; assay type: binding
Method: as §2, §1
Because the putative binding region of GSMs is also found in full-length APP, labeling of both APP fragments in cells was assayed.

[7] = biological target: T4, APP-CTF (Homo sapiens, UniProt P05067); assay: Photoaffinity labelling of APP and APP CTF in H4 cell membrane fractions and competition; assay type: binding; conditions: microsomal membrane fractions from H4 cells expressing wild-type APP
T4 construct: this protein was designated α-secretase-derived APP CTF (CTF83) on the basis of molecular weight; expressed in transfected cells
Method: Photoaffinity labelling. All experiments used the following general protocol. Samples (recombinant or synthetic peptides, cell lysates and membrane preparations) were exposed in borosilicate test tubes to ultraviolet light (350 nm) in a Rayonet Photoreactor R100 (RPR-3500 lamps, Southern New England Ultra Violet Company) in a cold room (4° C.) for 30 minutes or as otherwise noted. Crosslinked samples were analyzed by ELISA for biotin incorporation, or analyzed directly by SDS-PAGE (Criterion-XT, Bio-Rad), or after precipitation with streptavidin ultralink plus beads (Pierce). After immunblotting, proteins were detected using chemiluminesence (ECL Plus, GEHealthcare) or near-infrared fluorescence (LiCor Odyssey). Full-length APP and APP CTFs (CTF83, CTF99) were detected with CT20, a rabbit polyclonal antibody against the C-terminus of APP. Biotin was detected with an affinity-purified rabbit polyclonal antibody (Bethyl). Cell-based screens for amyloid-β modulation.

T2 sequence (P05067 672-770 limits assumed): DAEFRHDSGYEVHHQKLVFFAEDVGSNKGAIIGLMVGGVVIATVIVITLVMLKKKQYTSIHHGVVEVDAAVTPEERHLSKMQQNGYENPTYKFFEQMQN
T3 sequence (Q01705 1711-1809 limits assumed): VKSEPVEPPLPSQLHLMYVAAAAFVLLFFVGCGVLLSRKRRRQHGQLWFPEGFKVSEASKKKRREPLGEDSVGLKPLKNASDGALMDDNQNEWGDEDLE
T4 sequence (P05067 688-770 limits assumed): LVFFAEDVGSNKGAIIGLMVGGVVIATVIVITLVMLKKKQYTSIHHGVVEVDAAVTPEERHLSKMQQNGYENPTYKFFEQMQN

CC(C)(Oc1ccc(C(=O)c2ccc(Cl)cc2)cc1)C(=O)NCCCCCNC(=O)CCCCC1SCC2NC(=O)NC21 (stereo not drawn) [Fen-B, N-(5-(2-(4-(4-chlorobenzoyl)phenoxy)-2-methylpropanamido)pentyl)-5-(2-oxo-hexahydro-1H-thieno[3,4-d]imidazol-4-yl)pentanamide]
Toxicity, based on cell morphology and XTT assay [1]: toxic at higher doses | Aβ42 increase ([1]; 33 μM, 6 hours): ~200% | Aβ42 in cell-free γ-secretase assay [2]: raise Aβ42 with similar potencies | labeling of γ-secretase components [3]: Absence of PS1, NCT, APH1, and Pen2 labeling | labeling of APP(C100)-Flag [4]: label a recombinant APP c-secretase substrate (APP(C100)-Flag) with similar potency | labeling of CTF-γ (CTF-50) ([4]; peptides 5 μM, Fen-B 25 μM, 30 minutes): no evidence for binding to CTF-γ | labeling of Notch (C100)-Flag [5]: less efficient than Fen-B labeling of the APP(C100)-Flag | labeling of Aβ1-28 [6]: did not label | labeling of Aβ1-36 [6]: efficiently labeled | labeling of Aβ1-40 [6]: efficiently labeled | labeling of Flag-tagged Aβ25-36 [6]: preferentially label | labeling of full-length APP and APP CTFs [7]: labeled full-length APP and APP CTFs
